Experimental data reported in PMC8911723, “Design, Synthesis, and Cytotoxic Activity of Novel Natural Arylsulfonamide-Inspired Molecules” (Molecules, 2022).
Values after ≈ are worked out from the molar mass of the structure shown.

Experiments:
[1] = MTT in vitro cytotoxicity assay, HepG2 cells; format: cell-based, human; details: HepG2 hepatocellular liver carcinoma cells; HepG2 human hepatocellular liver carcinoma cell line; MTT assay; triplicate, three independent experiments
Source text: (§1) Pharmacological evaluation: All target carboxamide derivatives derived from natural arylsulfonamides 10a–r were screened for their potential in vitro cytotoxic effects on A875 (human melanoma), HepG2 (human hepatocellular liver carcinoma), and MARC145 (A subclone of African green monkey kidney cell line MA-104) cell lines using the standard MTT assay, with 5-FU (5-fluorouracil) as a positive control. The IC50 value represents the drug concentration required to inhibit cell growth by 50%.
(§2) Bioassays: The in vitro cytotoxicity of the novel carbazole derivatives against human melanoma (A875), human hepatocellular liver carcinoma (HepG2), and a subclone of African green monkey kidney cell line MA-104 (MARC145) cell lines was evaluated using the MTT assay. All data were analyzed with SPSS software, and the 50% inhibitory concentrations (IC50) of each compound for the different cell lines were determined. All assays were performed in triplicate on three independent experiments.

[2] = MTT in vitro cytotoxicity assay, MARC145 cells; format: cell-based, African green monkey; details: MARC145 kidney cells (subclone of MA-104); MARC145 African green monkey kidney cell line; MTT assay; triplicate, three independent experiments
Source text: as §1, §2

[3] = MTT in vitro cytotoxicity assay, A875 cells; format: cell-based; details: A875 melanoma cells, A875 human melanoma cell line, triplicate, three independent experiments
Source text: as §1, §2

[4] = system: HepG2 (human hepatocellular liver carcinoma) cell line; assay: MTT in vitro cytotoxicity assay, HepG2 cells; format: cell-based; details: HepG2 cells; concentration 40 µg/mL; preliminary screening (Figure 4)
Source text: as §1, §2

[5] = system: MARC145 (a subclone of African green monkey kidney cell line MA-104); assay: MTT in vitro cytotoxicity assay, MARC145 cells; format: cell-based; details: MARC145 cells; concentration 40 µg/mL; preliminary screening (Figure 4)
Source text: as §1, §2

melting point	Structure (SMILES)	IC50 [1]	IC50 [2]	IC50 [3]	Inhibitory activity at 40 µg/mL compared with control 5-FU [4]	Inhibitory activity at 40 µg/mL compared with control 5-FU [5]
156 to 157 °C	O=C(Nc1ccc(S(=O)(=O)Nc2ccccc2-c2ccccc2)cc1)c1cc(Br)nn1-c1ncccc1Cl [10e, N-(4-(N-([1,1′-Biphenyl]-2-yl)sulfamoyl)phenyl)-3-bromo-1-(3-chloropyridin-2-yl)-1H-pyrazole-5-carboxamide]	> 40 µg/mL	> 40 µg/mL	> 40 µg/mL	–	–
177 to 178 °C	O=C(Nc1ccc(S(=O)(=O)Nc2ccccc2Oc2ccccc2)cc1)c1cc(Br)nn1-c1ncccc1Cl [10f, 3-Bromo-1-(3-chloropyridin-2-yl)-N-(4-(N-(2-phenoxyphenyl)sulfamoyl)phenyl)-1H-pyrazole-5-carboxamide]	> 40 µg/mL	11.8 ± 2.93 µg/mL (≈ 18.9 µM)	> 40 µg/mL	–	–
181 to 182 °C	O=C(Nc1ccc(S(=O)(=O)Nc2ccccc2C(F)(F)F)cc1)c1cc(Br)nn1-c1ncccc1Cl [10h, 3-Bromo-1-(3-chloropyridin-2-yl)-N-(4-(N-(2-(trifluoromethyl)phenyl)sulfamoyl)phenyl)-1H-pyrazole-5-carboxamide]	14.4 ± 1.89 µg/mL (≈ 23.9 µM)	6.75 ± 0.89 µg/mL (≈ 11.2 µM)	16.8 ± 1.14 µg/mL (≈ 27.9 µM)	–	–
156 to 157 °C	Cc1onc(NS(=O)(=O)c2ccc(NC(=O)c3cccc(-c4ccccc4)c3C)cc2)c1C [10k, N-(4-(N-(4,5-Dimethylisoxazol-3-yl)sulfamoyl)phenyl)-2-methyl-[1,1′-biphenyl]-3-carboxamide]	34.7 ± 2.94 µg/mL (≈ 75.2 µM)	> 40 µg/mL	> 40 µg/mL	–	–
163 to 164 °C	O=C(Nc1ccc(S(=O)(=O)Nc2ccccc2-c2ccccc2)cc1)c1ccccc1-c1ccc(C(F)(F)F)cc1 [10m, N-(4-(N-([1,1′-Biphenyl]-2-yl)sulfamoyl)phenyl)-4′-(trifluoromethyl)-[1,1′-biphenyl]-2-carboxamide]	> 40 µg/mL	> 40 µg/mL	> 40 µg/mL	–	–
173 to 174 °C	O=C(Nc1ccc(S(=O)(=O)Nc2ccccc2Oc2ccccc2)cc1)c1ccccc1-c1ccc(C(F)(F)F)cc1 [10n, N-(4-(N-(2-Phenoxyphenyl)sulfamoyl)phenyl)-4′-(trifluoromethyl)-[1,1′-biphenyl]-2-carboxamide]	> 40 µg/mL	22.6 ± 2.78 µg/mL (≈ 38.3 µM)	> 40 µg/mL	–	–
199 to 200 °C	Cc1onc(NS(=O)(=O)c2ccc(NC(=O)c3ccccc3-c3ccc(C(F)(F)F)cc3)cc2)c1C [10o, N-(4-(N-(4,5-Dimethylisoxazol-3-yl)sulfamoyl)phenyl)-4′-(trifluoromethyl)-[1,1′-biphenyl]-2-carboxamide]	> 40 µg/mL	> 40 µg/mL	> 40 µg/mL	–	–
159 to 160 °C	CC(C(=O)Nc1ccc(S(=O)(=O)Nc2ccccc2C(F)(F)F)cc1)c1ccc2c(c1)[nH]c1ccc(Cl)cc12 (stereo not drawn) [10q, 2-(6-Chloro-9H-carbazol-2-yl)-N-(4-(N-(2-(trifluoromethyl)phenyl)sulfamoyl)phenyl)propanamide]	3.55 ± 0.63 µg/mL (≈ 6.21 µM)	2.95 ± 0.78 µg/mL (≈ 5.16 µM)	4.19 ± 0.78 µg/mL (≈ 7.33 µM)	significantly higher activities compared with the control	significantly higher activities compared with the control
166 to 167 °C	CC(C(=O)Nc1ccc(S(=O)(=O)Nc2ccccc2Oc2ccccc2)cc1)c1ccc2c(c1)[nH]c1ccc(Cl)cc12 (stereo not drawn) [10r, 2-(6-Chloro-9H-carbazol-2-yl)-N-(4-(N-(2-phenoxyphenyl)sulfamoyl)phenyl)propanamide]	8.84 ± 1.68 µg/mL (≈ 14.8 µM)	5.96 ± 1.33 µg/mL (≈ 10 µM)	15.2 ± 2.4 µg/mL (≈ 25.4 µM)	significantly higher activities compared with the control	significantly higher activities compared with the control
205 to 207 °C	O=C(O)c1ccccc1NS(=O)(=O)c1ccc(-c2ccccc2)cc1 [NC1, 2-([1,1′-Biphenyl]-4-sulfonamido)benzoic acid]	–	25.8 ± 10.4 µg/mL (≈ 73 µM)	27.2 ± 5.39 µg/mL (≈ 76.9 µM)	–	–

Further lines, the molecule ahead of its results:

Structure (SMILES)	melting point	IC50 [1]	IC50 [2]	IC50 [3]	Inhibitory activity at 40 µg/mL compared with control 5-FU [4]	Inhibitory activity at 40 µg/mL compared with control 5-FU [5]
O=c1[nH]cc(F)c(=O)[nH]1 [5-FU, 5-fluorouracil, reference compound]	–	15.1 ± 1.06 µg/mL (≈ 116 µM)	13.1 ± 1.32 µg/mL (≈ 100 µM)	11.8 ± 2.03 µg/mL (≈ 90.4 µM)	–	–
O=C(Nc1ccc(S(=O)(=O)Nc2ccccc2-c2ccccc2)cc1)c1ccccc1C(F)(F)F [10a, N-(4-(N-([1,1′-Biphenyl]-2-yl)sulfamoyl)phenyl)-2-(trifluoromethyl)benzamide]	–	22.1 ± 3.99 µg/mL (≈ 44.4 µM)	13.2 ± 2.49 µg/mL (≈ 26.5 µM)	> 40 µg/mL	–	–
O=C(Nc1ccc(S(=O)(=O)Nc2ccccc2Oc2ccccc2)cc1)c1ccccc1C(F)(F)F [10b, N-(4-(N-(2-Phenoxyphenyl)sulfamoyl)phenyl)-2-(trifluoromethyl)benzamide]	–	> 40 µg/mL	> 40 µg/mL	> 40 µg/mL	–	–
Cc1onc(NS(=O)(=O)c2ccc(NC(=O)c3ccccc3C(F)(F)F)cc2)c1C [10c, N-(4-(N-(4,5-Dimethylisoxazol-3-yl)sulfamoyl)phenyl)-2-(trifluoromethyl)benzamide]	183 to 184 °C	> 40 µg/mL	> 40 µg/mL	> 40 µg/mL	–	–
O=C(Nc1ccc(S(=O)(=O)Nc2ccccc2C(F)(F)F)cc1)c1ccccc1C(F)(F)F [10d, 2-(Trifluoromethyl)-N-(4-(N-(2-(trifluoromethyl)phenyl)sulfamoyl)phenyl)benzamide]	–	33.1 ± 2.13 µg/mL (≈ 67.7 µM)	24.9 ± 4.45 µg/mL (≈ 51 µM)	> 40 µg/mL	–	–
Cc1onc(NS(=O)(=O)c2ccc(NC(=O)c3cc(Br)nn3-c3ncccc3Cl)cc2)c1C [10g, 3-Bromo-1-(3-chloropyridin-2-yl)-N-(4-(N-(4,5-dimethylisoxazol-3-yl)sulfamoyl)phenyl)-1H-pyrazole-5-carboxmide]	171 to 172 °C	> 40 µg/mL	> 40 µg/mL	> 40 µg/mL	–	–
Cc1c(C(=O)Nc2ccc(S(=O)(=O)Nc3ccccc3-c3ccccc3)cc2)cccc1-c1ccccc1 [10i, N-(4-(N-([1,1′-Biphenyl]-2-yl)sulfamoyl)phenyl)-2-methyl-[1,1′-biphenyl]-3-carboxamide]	–	> 40 µg/mL	> 40 µg/mL	> 40 µg/mL	–	–
Cc1c(C(=O)Nc2ccc(S(=O)(=O)Nc3ccccc3Oc3ccccc3)cc2)cccc1-c1ccccc1 [10j, 2-Methyl-N-(4-(N-(2-phenoxyphenyl)sulfamoyl)phenyl)-[1,1′-biphenyl]-3-carboxamide]	–	> 40 µg/mL	> 40 µg/mL	> 40 µg/mL	–	–
Cc1c(C(=O)Nc2ccc(S(=O)(=O)Nc3ccccc3C(F)(F)F)cc2)cccc1-c1ccccc1 [10l, 2-Methyl-N-(4-(N-(2-(trifluoromethyl)phenyl)sulfamoyl)phenyl)-[1,1′-biphenyl]-3-carboxamide]	–	9.03 ± 1.49 µg/mL (≈ 17.7 µM)	5.62 ± 0.98 µg/mL (≈ 11 µM)	10.8 ± 2.28 µg/mL (≈ 21.1 µM)	significantly higher activities compared with the control	significantly higher activities compared with the control
O=C(Nc1ccc(S(=O)(=O)Nc2ccccc2C(F)(F)F)cc1)c1ccccc1-c1ccc(C(F)(F)F)cc1 [10p, 4′-(Trifluoromethyl)-N-(4-(N-(2-(trifluoromethyl)phenyl)sulfamoyl)phenyl)-[1,1′-biphenyl]-2-carboxamide]	–	9.6 ± 0.88 µg/mL (≈ 17 µM)	8.5 ± 2.55 µg/mL (≈ 15.1 µM)	20.4 ± 3.99 µg/mL (≈ 36.2 µM)	significantly higher activities compared with the control	significantly higher activities compared with the control
COC(=O)c1ccccc1NC(=O)c1ccccc1NS(=O)(=O)c1ccc(-c2ccccc2)cc1 [NC2, Methyl 2-(2-([1,1′-biphenyl]-4-sulfonamido)benzamido)benzoate]	–	–	> 40 µg/mL	> 40 µg/mL	–	–
